Source: US20190152992A1, “BENZODIOXANE DERIVATIVES AND THEIR PHARMACEUTICAL USE” (Orion Corporation, priority 2016, published 2019)
Structures can show the parent of a compound that is named as a salt.

How the values were obtained:
[1] = molecular target: T1, human alpha2C receptors (Homo sapiens, UniProt P18825); assay: Determination of alpha2C antagonistic activity in vitro (FLIPR calcium assay); settings: for Kb: Alpha 2C Adrenaline Kb, Kb calculated from IC50 with the Cheng-Prusoff equation, adrenaline as agonist, CHO cells, human alpha2C
T1 sequence (P18825 1-462): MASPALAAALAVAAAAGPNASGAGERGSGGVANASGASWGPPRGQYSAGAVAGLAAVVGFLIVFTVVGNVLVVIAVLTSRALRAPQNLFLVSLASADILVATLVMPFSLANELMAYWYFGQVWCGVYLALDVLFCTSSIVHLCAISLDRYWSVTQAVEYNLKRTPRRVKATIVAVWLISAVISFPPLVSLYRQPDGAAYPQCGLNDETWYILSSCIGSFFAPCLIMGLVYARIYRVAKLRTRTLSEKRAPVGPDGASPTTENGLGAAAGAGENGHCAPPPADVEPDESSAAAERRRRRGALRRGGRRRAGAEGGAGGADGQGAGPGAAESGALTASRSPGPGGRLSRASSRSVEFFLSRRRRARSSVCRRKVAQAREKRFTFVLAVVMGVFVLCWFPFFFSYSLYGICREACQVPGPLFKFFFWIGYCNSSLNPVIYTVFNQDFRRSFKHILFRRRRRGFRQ
Method: (§1) Experiment 1: Determination of alpha2A and alpha2C Antagonistic Activity In Vitro
(§2) The growth medium was removed and the cells were incubated with the test compounds and the FLIPR Calcium 6 Assay reagent (Molecular Devices, CA, USA) for 2 h at 37° C. in dark. The test compounds (concentrations in cells 100 pM-10 μM) were dissolved in Probenecid-Ringer consisting of 150 mM NaCl, 3 mM KCl, 1.2 mM MgCl2, 1 mM CaCl2, 5 mM glucose, 20 mM HEPES and 2.5 mM probenecid (pH 7.4 adjusted with 1.0 M NaOH). […] All experiments were performed at 37° C. For agonism measurements the test compounds dissolved in Probenecid-Ringer were applied by FLIPR Tetra at 15 s time point. In order to determine antagonism, the cells were stimulated either with 100 nM adrenaline or noradrenaline and the test compounds were added to the cells 2 h before the experiment with the FLIPR Calcium 6 Assay reagent. […] Typically, there were four replicates at each concentration and six different dose levels. […] The minimum fluorescence value subtracted from the maximum value for each well was used in the calculations. ScreenWorks version 4.0 software was used for analyzing the results. Fitting of the antagonist dose-response results was performed with the free Hill equation and the IC50 values were fitted with IDBS XE software using model 200: y=(A+(B/(1+((x/C)̂D)))), where A is the curve maximum, B the curve minimum and C equals the EC50 value. D is slope factor (Hill). Kb was calculated with the Cheng-Prusoff equation Kb=A/((B/C)+1), where A is the IC50 of antagonist, B the concentration of agonist and C the EC50 of the agonist.

[2] = molecular target: T2, human alpha2A receptors (Homo sapiens, UniProt P08913); assay: cell-based
T2 sequence (P08913 1-465): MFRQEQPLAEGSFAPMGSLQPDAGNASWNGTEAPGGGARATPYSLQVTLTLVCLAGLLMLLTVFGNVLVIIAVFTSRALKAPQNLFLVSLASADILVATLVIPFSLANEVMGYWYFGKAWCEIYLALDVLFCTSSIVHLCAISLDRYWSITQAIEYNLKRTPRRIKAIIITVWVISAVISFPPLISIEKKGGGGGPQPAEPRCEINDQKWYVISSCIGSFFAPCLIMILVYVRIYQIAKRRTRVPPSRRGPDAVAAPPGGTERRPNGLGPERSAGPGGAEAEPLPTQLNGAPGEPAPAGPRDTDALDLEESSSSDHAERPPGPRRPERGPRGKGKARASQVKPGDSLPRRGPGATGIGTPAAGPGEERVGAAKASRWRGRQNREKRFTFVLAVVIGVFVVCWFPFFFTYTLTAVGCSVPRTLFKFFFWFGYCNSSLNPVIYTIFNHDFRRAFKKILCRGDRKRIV
Method: as §1, §2

Compound | IC50 [1] | Kb [1] | IC50 [2] | Kb [2]
CN1C(=O)N([C@H]2CCCN(C[C@H]3COc4ccccc4O3)C2)CC1(C)C [example 51, 1-((S)-1-(((S)-2,3-Dihydrobenzo[b][1,4]dioxin-2-yl)methyl)piperidin-3-yl)-3,4,4-trimethylimidazolidin-2-one] | 0.11 nM | 0.01 nM | > 10000 nM | > 449 nM
C[C@H]1NC(=O)N([C@H]2CCCN(C[C@H]3COc4ccccc4O3)C2)C1=O [example 112, (R)-3-((S)-1-(((S)-2,3-Dihydrobenzo[b][1,4]dioxin-2-yl)methyl)-piperidin-3-yl)-5-methylimidazolidine-2,4-dione] | 0.16 nM | 0.02 nM | > 10000 nM | > 449 nM
O=C1C(=O)N([C@H]2CCCN(C[C@H]3COc4ccccc4O3)C2)C(=O)N1C1CCNCC1 [example 137, 1-((S)-1-(((S)-2,3-Dihydrobenzo[b][1,4]dioxin-2-yl)methyl)piperidin-3-yl)-3-(piperidin-4-yl)imidazolidine-2,4,5-trione dihydrochloride] | 5.5 nM | 0.554 nM | > 10000 nM | > 449 nM
O=C1C2CC2(c2ccccc2)C(=O)N1[C@H]1CCCN(C[C@H]2COc3ccccc3O2)C1 (stereo partly drawn) [example 37, 3-((S)-1-(((S)-2,3-Dihydrobenzo[b][1,4]dioxin-2-yl)methyl)piperidin-3-yl)-1-phenyl-3-azabicyclo[3.1.0]hexane-2,4-dione] | < 0.01 nM | < 0.001 nM | > 10000 nM | > 449 nM
COc1ccc2c(c1)C(=O)N([C@H]1CCCN(C[C@H]3COc4ccccc4O3)C1)C2 [example 70, 2-((S)-1-(((S)-2,3-Dihydrobenzo[b][1,4]dioxin-2-yl)methyl)piperidin-3-yl)-6-methoxyisoindolin-1-one] | 0.905 nM | 0.091 nM | > 10000 nM | > 449 nM
COc1cccc2c1CN([C@H]1CCCN(C[C@H]3COc4ccccc4O3)C1)C2=O [example 55, 2-((S)-1-(((S)-2,3-Dihydrobenzo[b][1,4]dioxin-2-yl)methyl)piperidin-3-yl)-4-methoxyisoindolin-1-one] | 0.029 nM | 0.003 nM | > 10000 nM | > 449 nM
O=C1Cc2ccccc2N1[C@H]1CCCN(C[C@H]2COc3ccccc3O2)C1 [example 26, 1-((S)-1-(((S)-2,3-Dihydrobenzo[b][1,4]dioxin-2-yl)methyl)piperidin-3-yl)indolin-2-one] | 27.9 nM | 2.81 nM | > 10000 nM | > 449 nM
Cc1nc2cccnc2n1[C@H]1CCCN(C[C@H]2COc3ccccc3O2)C1 [example 156, 3-((S)-1-(((S)-2,3-Dihydrobenzo[b][1,4]dioxin-2-yl)methyl)-piperidin-3-yl)-2-methyl-3H-imidazo[4,5-b]pyridine] | 0.012 nM | 0.001 nM | 3580 nM | 161 nM
c1ccc2c(c1)OC[C@H](CN1CCC[C@H](n3nnc4ccccc43)C1)O2 [example 145, 1-((S)-1-(((S)-2,3-Dihydrobenzo[b][1,4]dioxin-2-yl)methyl)piperidin-3-yl)-1H-benzo[d][1,2,3]triazole] | 0.85 nM | 0.09 nM | 2780 nM | 125 nM
O=c1[nH]c2ccccc2c(=O)n1[C@H]1CCCN(C[C@H]2COc3ccccc3O2)C1 [example 72, 3-((S)-1-(((S)-2,3-Dihydrobenzo[b][1,4]dioxin-2-yl)methyl)-piperidin-3-yl)quinazoline-2,4(1H,3H)-dione] | 0.124 nM | 0.012 nM | > 10000 nM | > 449 nM
N#Cc1ccc2c(c1)CN([C@H]1CCCN(C[C@H]3COc4ccccc4O3)C1)C2=O [example 67, 2-((S)-1-(((S)-2,3-Dihydrobenzo[b][1,4]dioxin-2-yl)methyl)piperidin-3-yl)-1-oxoisoindoline-5-carbonitrile] | 1.3 nM | 0.132 nM | > 10000 nM | > 449 nM
CCN1CCN([C@H]2CCCN(C[C@H]3COc4ccccc4O3)C2)C1=O [example 16, 1-((S)-1-(((S)-2,3-Dihydrobenzo[b][1,4]dioxin-2-yl)methyl)piperidin-3-yl)-3-ethylimidazolidin-2-one] | 0.57 nM | 0.06 nM | > 10000 nM | > 449 nM
CC(C)C1CN([C@H]2CCCN(C[C@H]3COc4ccccc4O3)C2)C(=O)O1 (stereo partly drawn) [example 19, 3-((S)-1-(((S)-2,3-Dihydrobenzo[b][1,4]dioxin-2-yl)methyl)piperidin-3-yl)-5-isopropyloxazolidin-2-one] | 7.65 nM | 0.771 nM | > 10000 nM | > 449 nM
CN1C(=O)N([C@H]2CCCN(C[C@H]3COc4ccccc4O3)C2)C(=O)C1(C)C [example 111, 3-((S)-1-(((S)-2,3-Dihydrobenzo[b][1,4]dioxin-2-yl)methyl)-piperidin-3-yl)-1,5,5-trimethylimidazolidine-2,4-dione] | 0.87 nM | 0.09 nM | > 10000 nM | > 449 nM

Next, values leading:

IC50 [1] | Kb [1] | IC50 [2] | Kb [2] | Compound
< 0.01 nM | < 0.001 nM | 807 nM | 36 nM | C[C@@H](c1ccccc1)N1C(=O)C(=O)N([C@H]2CCCN(C[C@H]3COc4ccccc4O3)C2)C1=O [compound 133, 1-((S)-1-(((S)-2,3-Dihydrobenzo[b][1,4]dioxin-2-yl)methyl)-piperidin-3-yl)-3-((S)-1-phenylethyl)imidazolidine-2,4,5-trione]
< 0.1 nM | < 0.01 nM | 9460 nM | 425 nM | Clc1ccc2ncn([C@H]3CCCN(C[C@H]4COc5ccccc5O4)C3)c2c1 [example 89, 6-Chloro-1-((S)-1-(((S)-2,3-dihydrobenzo[b][1,4]dioxin-2-yl)methyl)piperidin-3-yl)-1H-benzo[d]imidazole]
228 nM | 22.9 nM | > 10000 nM | > 449 nM | Cn1c(=O)n([C@H]2CCCN(C[C@H]3COc4ccccc4O3)C2)c2ccccc21 [example 147, 1-((S)-1-(((S)-2,3-Dihydrobenzo[b][1,4]dioxin-2-yl)methyl)piperidin-3-yl)-3-methyl-1H-benzo[d]imidazol-2(3H)-one]
1.11 nM | 0.11 nM | > 1000 nM | > 45 nM | CC1CCC(=O)N1[C@H]1CCCN(C[C@H]2COc3ccccc3O2)C1 (stereo partly drawn) [example 30, 1-((S)-1-(((S)-2,3-Dihydrobenzo[b][1,4]dioxin-2-yl)methyl)piperidin-3-yl)-5-methylpyrrolidin-2-one]
1.63 nM | 0.164 nM | > 10000 nM | > 449 nM | Cc1nc2ncccc2n1[C@H]1CCCN(C[C@H]2COc3ccccc3O2)C1 [example 157, 1-((S)-1-(((S)-2,3-Dihydrobenzo[b][1,4]dioxin-2-yl)methyl)-piperidin-3-yl)-2-methyl-1H-imidazo[4,5-b]pyridine]
29.9 nM | 3.01 nM | > 10000 nM | > 449 nM | O=C1N(c2ccccc2)CCN1[C@H]1CCCN(C[C@H]2COc3ccccc3O2)C1 [example 48, 1-((S)-1-(((S)-2,3-Dihydrobenzo[b][1,4]dioxin-2-yl)methyl)piperidin-3-yl)-3-phenylimidazolidin-2-one]
3.52 nM | 0.354 nM | > 10000 nM | > 449 nM | CN1C(=O)N([C@H]2CCCN(C[C@H]3COc4ccccc4O3)C2)C(=O)C12CC2 [example 123, 6-((S)-1-(((S)-2,3-Dihydrobenzo[b][1,4]dioxin-2-yl)methyl)-piperidin-3-yl)-4-methyl-4,6-diazaspiro[2.4]heptane-5,7-dione]
0.1 nM | 0.01 nM | > 10000 nM | > 449 nM | O=C1CN(C2CCCC2)C(=O)N1[C@H]1CCCN(C[C@H]2COc3ccccc3O2)C1 [example 106, 1-Cyclopentyl-3-((S)-1-(((S)-2,3-dihydrobenzo[b][1,4]dioxin-2-yl)methyl)piperidin-3-yl)imidazolidine-2,4-dione]
< 0.1 nM | < 0.01 nM | 1020 nM | 46 nM | O=C1N(Cc2ccccc2)CCN1[C@H]1CCCN(C[C@H]2COc3ccccc3O2)C1 [example 50, 1-Benzyl-3-((S)-1-(((S)-2,3-dihydrobenzo[b][1,4]dioxin-2-yl)methyl)piperidin-3-yl)imidazolidin-2-one]
0.78 nM | 0.08 nM | > 10000 nM | > 449 nM | CN1CCN([C@H]2CCCN(C[C@H]3COc4ccccc4O3)C2)C1=O [example 101, 1-((S)-1-(((S)-2,3-Dihydrobenzo[b][1,4]dioxin-2-yl)methyl)piperidin-3-yl)-3-methylimidazolidin-2-one]
